Source: paper PMC3918950 (Experimental eye research, 2013)

Key:
[1] = tested on: Y-79 cells; test: Anti-proliferative activity; format: cell-based, human; conditions: for IC50: Homo sapiens, Y79, read-out: IC50 against retinoblastoma cells; for Reduction of IC50 value in the presence of moxifloxacin: Y-79, MTT, moxifloxacin 500 µM
[2] = tested on: IL-6; test: Pro-inflammatory cytokines assay, IL-6 release; format: cell-based, human; conditions: 48 h; for Reduction of IL-6 release in presence of moxifloxacin: moxifloxacin 500 µM
[3] = tested on: IL-8; test: Pro-inflammatory cytokines assay, IL-8 release; format: cell-based, human; conditions: 48 h; for Reduction of IL-8 release in presence of moxifloxacin: moxifloxacin 500 µM
[4] = biological target: T1, MDR1 (Homo sapiens, UniProt P08183); test: in vitro; conditions: MDCK-MDR1
[5] = biological target: T2, MRP2 (Homo sapiens, UniProt Q92887); test: in vitro; conditions: dog
[6] = biological target: T2, MRP2; conditions: MDCK-MRP2; [14C]-erythromycin 0.25 µCi/mL; 30 min; in presence of MK571 50 µM
[7] = biological target: T2, MRP2; test: Bi-directional transport of moxifloxacin across MDCK-MRP2 cells; format: in vitro ADME
[8] = tested on: caspase-3; test: Caspase-3 assay in Y-79 cells; format: cell-based, human
[9] = biological target: T1, MDR1
[10] = biological target: T1, MDR1; test: in vitro; conditions: MDCK-MDR1, pH 7.4
[11] = in vitro; conditions: dog, MDCK, pH 7.4
[12] = biological target: T1, MDR1; test: cell-based
[13] = biological target: T2, MRP2; test: cell-based
[14] = biological target: T1, MDR1; test: Bidirectional transport of anticancer agents across MDCK-MDR1 cells; conditions: moxifloxacin 500 µM
[15] = biological target: T2, MRP2; test: Bidirectional transport of anticancer agents across MDCK-MRP2 cells; conditions: moxifloxacin 500 µM
[16] = biological target: T1, MDR1; test: Bi-directional transport of [14C]-erythromycin across MDCK-MDR1 cells; format: in vitro ADME; conditions: MDCK-MDR1, pH 7.4
[17] = biological target: T2, MRP2; test: Bi-directional transport of [14C]-erythromycin across MDCK-MRP2 cells; format: in vitro ADME; conditions: pH 7.4
[18] = tested on: caspase-3; conditions: read-out: Km (caspase-3 substrate); ref Anaspec, San Jose, CA; cited from earlier work
[19] = conclusion from uptake and bi-directional transport

T1 sequence (P08183 whole entry): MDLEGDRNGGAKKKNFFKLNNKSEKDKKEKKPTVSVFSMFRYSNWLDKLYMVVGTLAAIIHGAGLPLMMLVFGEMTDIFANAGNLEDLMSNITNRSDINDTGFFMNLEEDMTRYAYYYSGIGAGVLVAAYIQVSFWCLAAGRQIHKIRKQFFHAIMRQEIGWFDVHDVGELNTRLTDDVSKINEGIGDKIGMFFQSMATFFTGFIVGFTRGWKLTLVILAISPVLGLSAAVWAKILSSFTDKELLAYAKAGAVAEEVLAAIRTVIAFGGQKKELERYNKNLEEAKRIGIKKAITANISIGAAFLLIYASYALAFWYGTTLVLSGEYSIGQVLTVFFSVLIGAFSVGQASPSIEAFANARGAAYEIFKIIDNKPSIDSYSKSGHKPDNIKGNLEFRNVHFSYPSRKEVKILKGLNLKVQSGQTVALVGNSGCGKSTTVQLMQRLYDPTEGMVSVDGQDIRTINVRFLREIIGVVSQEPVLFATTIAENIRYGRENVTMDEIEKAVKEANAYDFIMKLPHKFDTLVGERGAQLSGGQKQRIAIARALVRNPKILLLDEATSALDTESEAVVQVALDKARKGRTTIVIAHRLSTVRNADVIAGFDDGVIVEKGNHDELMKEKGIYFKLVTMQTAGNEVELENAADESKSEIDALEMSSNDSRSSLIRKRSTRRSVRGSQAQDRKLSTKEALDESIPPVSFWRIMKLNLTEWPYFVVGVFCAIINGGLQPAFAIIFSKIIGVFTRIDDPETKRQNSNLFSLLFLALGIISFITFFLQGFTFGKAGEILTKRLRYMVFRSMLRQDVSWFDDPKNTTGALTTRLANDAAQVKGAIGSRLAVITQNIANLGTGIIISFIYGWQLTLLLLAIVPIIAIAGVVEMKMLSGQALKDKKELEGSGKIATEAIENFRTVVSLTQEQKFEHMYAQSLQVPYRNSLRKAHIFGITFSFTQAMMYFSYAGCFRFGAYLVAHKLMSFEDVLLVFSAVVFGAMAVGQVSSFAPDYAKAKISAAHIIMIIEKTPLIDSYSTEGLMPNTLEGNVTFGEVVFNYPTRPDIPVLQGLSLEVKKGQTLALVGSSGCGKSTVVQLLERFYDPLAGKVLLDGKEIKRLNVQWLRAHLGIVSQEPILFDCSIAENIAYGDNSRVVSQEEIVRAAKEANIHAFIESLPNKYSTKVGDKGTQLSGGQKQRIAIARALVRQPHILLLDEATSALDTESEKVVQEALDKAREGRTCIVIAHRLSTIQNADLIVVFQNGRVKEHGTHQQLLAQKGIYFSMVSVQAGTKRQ
T2 sequence (Q92887 whole entry): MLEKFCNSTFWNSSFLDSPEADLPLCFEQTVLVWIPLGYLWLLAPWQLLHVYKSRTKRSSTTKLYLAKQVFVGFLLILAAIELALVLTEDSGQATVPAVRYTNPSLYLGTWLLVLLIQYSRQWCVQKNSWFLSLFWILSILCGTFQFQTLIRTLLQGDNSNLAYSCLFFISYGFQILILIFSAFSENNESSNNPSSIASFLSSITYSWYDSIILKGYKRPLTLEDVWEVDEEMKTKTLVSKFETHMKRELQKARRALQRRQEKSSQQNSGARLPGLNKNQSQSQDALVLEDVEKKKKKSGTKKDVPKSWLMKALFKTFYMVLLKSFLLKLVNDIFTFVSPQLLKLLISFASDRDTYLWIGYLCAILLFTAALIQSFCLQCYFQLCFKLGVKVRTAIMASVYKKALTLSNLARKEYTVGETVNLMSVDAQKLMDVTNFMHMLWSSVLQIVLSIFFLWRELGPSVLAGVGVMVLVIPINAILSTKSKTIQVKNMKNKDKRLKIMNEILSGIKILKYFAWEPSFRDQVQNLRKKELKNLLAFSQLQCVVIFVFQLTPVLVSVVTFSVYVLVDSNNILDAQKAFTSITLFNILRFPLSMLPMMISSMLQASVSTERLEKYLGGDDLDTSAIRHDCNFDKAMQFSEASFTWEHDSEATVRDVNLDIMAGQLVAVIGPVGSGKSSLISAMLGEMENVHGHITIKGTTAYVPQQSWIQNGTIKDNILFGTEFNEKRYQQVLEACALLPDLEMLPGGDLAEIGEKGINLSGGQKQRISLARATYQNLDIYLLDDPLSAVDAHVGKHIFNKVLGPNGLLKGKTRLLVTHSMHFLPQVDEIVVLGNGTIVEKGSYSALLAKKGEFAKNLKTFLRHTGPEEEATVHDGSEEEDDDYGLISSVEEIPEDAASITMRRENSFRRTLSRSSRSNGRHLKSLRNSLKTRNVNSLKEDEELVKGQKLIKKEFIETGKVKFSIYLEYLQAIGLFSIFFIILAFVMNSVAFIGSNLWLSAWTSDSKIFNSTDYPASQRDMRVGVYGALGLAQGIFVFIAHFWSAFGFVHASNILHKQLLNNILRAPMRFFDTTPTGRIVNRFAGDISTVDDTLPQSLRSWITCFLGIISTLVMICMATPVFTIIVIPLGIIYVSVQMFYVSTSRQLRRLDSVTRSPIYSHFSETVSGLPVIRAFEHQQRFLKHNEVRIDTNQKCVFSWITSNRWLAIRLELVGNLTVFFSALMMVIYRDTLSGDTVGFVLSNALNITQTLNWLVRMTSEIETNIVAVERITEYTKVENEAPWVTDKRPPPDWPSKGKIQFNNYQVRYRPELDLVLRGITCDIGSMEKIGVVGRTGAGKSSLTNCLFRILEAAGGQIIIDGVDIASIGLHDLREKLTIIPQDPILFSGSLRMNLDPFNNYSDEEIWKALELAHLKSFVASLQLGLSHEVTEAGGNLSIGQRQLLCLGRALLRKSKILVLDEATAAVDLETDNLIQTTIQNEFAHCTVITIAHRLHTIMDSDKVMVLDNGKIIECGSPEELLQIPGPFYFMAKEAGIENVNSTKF

| Compound | IC50 [1] [µM] | Reduction of IC50 value in the presence of moxifloxacin [1] [fold] | Release of IL-6 ([2]; anticancer agent 0.5 µg alone) [pg/mL] | Reduction of IL-6 release in presence of moxifloxacin ([2]; anticancer agent 0.5 µg) [fold] | Release of IL-6 ([2]; anticancer agent 1.0 µg alone) [pg/mL] | Reduction of IL-6 release in presence of moxifloxacin ([2]; anticancer agent 1.0 µg) [fold] | Release of IL-8 ([3]; anticancer agent 0.5 µg alone) [pg/mL] | Reduction of IL-8 release in presence of moxifloxacin ([3]; anticancer agent 0.5 µg) [fold] | Release of IL-8 ([3]; anticancer agent 1.0 µg alone) [pg/mL] | Reduction of IL-8 release in presence of moxifloxacin ([3]; anticancer agent 1.0 µg) [fold] | Papp A→B at 0.5 µCi/mL [4] [×10⁻⁶ cm/s] | Papp B→A at 0.5 µCi/mL [4] [×10⁻⁶ cm/s] | Papp A→B at 0.5 µCi/mL [5] [×10⁻⁶ cm/s] | Papp B→A at 0.5 µCi/mL [5] [×10⁻⁶ cm/s] | further results |
| --- | --- | --- | --- | --- | --- | --- | --- | --- | --- | --- | --- | --- | --- | --- | --- |
| COc1cc([C@@H]2c3cc4c(cc3[C@@H](O[C@@H]3O[C@@H]5CO[C@@H](C)O[C@H]5[C@H](O)[C@H]3O)[C@H]3COC(=O)[C@H]23)OCO4)cc(OC)c1O [Etoposide] | 27.1 | 13 | 105.20 ± 3.90 | 1.3 | 151.40 ± 10.00 | 1.4 | 191.90 ± 9.10 | 1.60 | 286.60 ± 16.60 | 1.28 | 3.57 ± 0.65 | 11.6 ± 1.78 | 37.8 ± 2.7 | 207 ± 17.4 | – |
| CN(C)C(=O)CCSC(SCCC(=O)O)c1cccc(/C=C/c2ccc3ccc(Cl)cc3n2)c1 (centres unmarked) [MK571] | – | – | – | – | – | – | – | – | – | – | – | – | – | – | Cellular accumulation of [14C]-erythromycin relative to control [6]: 273% |
| COc1c(N2C[C@@H]3CCCN[C@@H]3C2)c(F)cc2c(=O)c(C(=O)O)cn(C3CC3)c12 [Moxifloxacin] | – | – | – | – | – | – | – | – | – | – | – | – | – | – | Increase of AP-BL permeability of moxifloxacin ([7]; MDCK-MRP2, in presence of MK571): 2.10 times; Substrate of MRP2 efflux transporter [7, 19]: substrate; Papp A→B at 500 µM ([7]; human, pH 7.4): 0.78 ± 0.13 ×10⁻⁶ cm/s; Papp B→A at 500 µM ([7]; human, pH 7.4): 1.97 ± 0.41 ×10⁻⁶ cm/s; Caspase-3 activity, moxifloxacin alone [8]: slightly elevated; Increase of AP-BL permeability of moxifloxacin ([9]; MDCK-MDR1, in presence of GF120918): 2.80 times; Substrate of MDR1 efflux transporter [9, 19]: substrate; Papp A→B at 500 µM [10]: 5.81 ± 0.44 ×10⁻⁶ cm/s; Papp B→A at 500 µM [10]: 20.5 ± 2.26 ×10⁻⁶ cm/s; Papp A→B at 500 µM [11]: 5.7 ± 0.04 ×10⁻⁶ cm/s; Papp B→A at 500 µM [11]: 7.4 ± 0.14 ×10⁻⁶ cm/s; IC50 [12]: 217 µM; IC50 [13]: 187 µM |
| CC[C@@]1(O)C(=O)OCc2c1cc1n(c2=O)Cc2cc3c(CN(C)C)c(O)ccc3nc2-1 [Topotecan] | 27.9 | 10 | 156.90 ± 2.70 | 1.3 | 157.50 ± 8.80 | 1.2 | 157.70 ± 12.60 | 1.48 | 239.20 ± 13.90 | 1.30 | 0.75 ± 0.03 | 3.5 ± 0.28 | 8.06 ± 0.66 | 24.8 ± 2.44 | efflux ratio at 0.5 µCi/mL [4]: 4.63; efflux ratio at 0.5 µCi/mL [5]: 3.07; Elevation of AP-BL permeability by moxifloxacin [14]: 2.08 fold; Elevation of AP-BL permeability by moxifloxacin [15]: 1.57 fold |
| CC[C@]1(O)C[C@@H]2CN(CCc3c([nH]c4ccccc34)[C@@](C(=O)OC)(c3cc4c(cc3OC)N(C)[C@H]3[C@@](O)(C(=O)OC)[C@H](OC(C)=O)[C@]5(CC)C=CCN6CC[C@]43[C@@H]65)C2)C1 [Vinblastine] | 0.0519 | 2 | 52.90 ± 4.30 | 1.11 | 73.60 ± 2.30 | 1.42 | 140.20 ± 14.40 | 1.40 | 284.90 ± 18.00 | 1.08 | 1.55 ± 0.03 | 10.2 ± 0.47 | 13.5 ± 3.24 | 73.8 ± 8.16 | Elevation of AP-BL permeability by moxifloxacin [14]: 2.55 fold |
| CC[C@H]1OC(=O)[C@H](C)[C@@H](O[C@H]2C[C@@](C)(OC)[C@@H](O)[C@H](C)O2)[C@H](C)[C@@H](O[C@@H]2O[C@H](C)C[C@H](N(C)C)[C@H]2O)[C@](C)(O)C[C@@H](C)C(=O)[C@H](C)[C@@H](O)[C@]1(C)O [[^14C]-erythromycin, Erythromycin] | – | – | – | – | – | – | – | – | – | – | – | – | – | – | Papp A→B at 3 h, 0.5 µCi/mL [16]: 5.44 ± 0.52 ×10⁻⁶ cm/s; Papp B→A at 3 h, 0.5 µCi/mL [16]: 18.8 ± 1.05 ×10⁻⁶ cm/s; Papp B→A at 3 h, 0.5 µCi/mL [17]: 2.7 ± 0.18 ×10⁻⁶ cm/s |
| Ac-DEVD-AMC | – | – | – | – | – | – | – | – | – | – | – | – | – | – | Km [18]: 9.7 µM |
